# In patent publication US20250031734A1, “COMPOSITIONS COMPRISING REBAUDIOSIDE J” (PepsiCo, Inc., priority 2016, published 2025):
# Where a SMILES comes first, the peptide text is derived from it.
# What was measured:
# [1] = test system: trained sensory panelists; experiment: Dose response, trained sensory panel, 15-point line scale (Example 4A); assay type: in vivo, human; details: eight concentrations 11.13-625.61 ppm
# Experimental: Eight concentrations of rebaudioside J with one blank solution were evaluated (Table 1). Trained sensory panelists participated in an orientation session to familiarize themselves with sample set. Three evaluations (replicates) were obtained from each panelist for each evaluation, and a total of 30 judgments were obtained for each sample.
# The panelists were served 10 mL portions of each sample. A 10-minute break was taken between samples. To determine sweetness intensity, the panelists were provided sucrose-containing sweetness intensity reference samples for intensities 5, 8, and 10. For each test sample, the panelists indicated the sweetness intensity of the test sample (labeled with a 3-digit number) on a 15-point line scale.
# [2] = test system: trained sensory panelists; experiment: Adaptation, sweetness and bitterness over time (Example 4B); assay type: in vivo, human
# Experimental: Three evaluations (replicates) were obtained from each panelist for each evaluation, and a total of 30 judgments were obtained for each sample. The samples were evaluated for sweetness and bitterness. Samples were presented blind and coded with random three-digit numbers.
# Each panelists took a sip, swirled the sample in his or her mouth for 10 seconds, expectorated and subsequently rated sweetness intensity and bitterness intensity using a 15-point line scale. Panelists repeated this procedure every 30 seconds for 3 minutes. After rinsing 6 times with water, the panelists were given a new sample and that sample was evaluated using the procedure described above
# human sense of taste = experiment: Sweetness recognition threshold comparison with 1.5% sucrose; assay type: in vivo; details: rebaudioside J 40 ppm
# Text: The term “sweetness recognition threshold concentration,” as generally used herein, is the lowest known concentration of a given sweetener or combination of sweeteners recognized as sweet by the human sense of taste, typically about 1.5% sucrose equivalence.
# panelists = experiment: Benchtop sweetness ranking on 1-10 scale against rebaudioside A 400 ppm and sucrose 6.5% (Example 3); assay type: in vivo, human; details: 400 ppm
# Experimental: Sample preparation: 4 degrees Brix HFCS control solution was prepared by adding 50.89 grams of 78.60 degrees Brix HFCS to 1000 g phosphoric acid base which was prepared by adding phosphoric acid dropwise into 1 L of AQUAFINA water until a pH of 3.1 was observed on a calibrated METTLER TOLEDO PH meter.
# For some low soluble compounds, Branson 2800 Ultra Sonic Bath was used to dissolve the material. If any cloudiness persisted, the sample solution was passed through a paper filter. Solubility was confirmed by shining a laser pointer through the solution. If no diffraction was observed then it was assumed that the material was soluble.
# Preparation of Rebaudioside A for Sensory Evaluation: 400 ppm rebaudioside A in water (pH=7) was prepared by dissolving 40 mg of rebaudioside A with stirring in 100 mL of water at room temperature.
# Preparation of Sucrose for Sensory Evaluation: 6.5% sucrose in water (pH=7) was prepared by adding 6.5 g of sucrose and dissolving it in 93.5 g water (total 100 gr).
# Tasting Protocol: Panelists were presented with two numbered samples and asked to note the sweet quality differences between the two samples. Panelists commented on sweetness onset, sweetness linger, overall sugar-like sweetness, and other qualities, such as bitter taste, metallic note, astringency, cooling sensation, any off-notes, and any associated flavors. […]
# [3] = test system: trained sensory panelists; experiment: Targeted descriptive analysis (Example 4C); assay type: in vivo, human; details: vs rebaudioside A
# Experimental: Panelists participated in an orientation session to familiarize themselves with sample set. They reviewed aroma, taste, flavor, and texture to determine the attributes most important for describing and differentiating the samples. These attributes were used to develop the ballot for the test evaluations. Three evaluations (replicates) were obtained from each panelist for each evaluation, and a total of 30 judgments were obtained for each sample. 45 mL of each sample was served in a sequential monadic presentation. The serving order was balanced for each panelist. For each test sample, the panelists indicated the intensity of each sensory attribute (labeled with a 3-digit number) on a 15-point line scale.
# sensory panelists = experiment: Sweetness modifier test, control vs sample with 30 ppm rebaudioside J (Example 6A); assay type: in vivo, human; details: sweetener plus 30 ppm rebaudioside J vs sweetener alone; about 5% SEV / 5 degrees Brix; pH 3.1 phosphate buffer; 13 to 16 panelists
# Experimental: The ability of rebaudioside J to modify the sweetness of natural and artificial sweeteners was assessed by comparing the sweetness of control samples without rebaudioside J to the sweetness of samples containing a mixture of the natural or artificial sweetener being tested and rebaudioside J. Control solutions were prepared by dissolving sucrose, HFCS, acesulfame-K, aspartame, and sucralose in pH 3.1 phosphate buffer. […] Sucrose and high fructose corn syrup (HFCS) were prepared as 5 degrees Brix solutions. This concentration was confirmed with an Anton Paar refractometer. […] Experimental samples were identical to control samples except for the addition of 30 ppm rebaudioside J. Tasting Protocol: The number of sensory panelists ranged from 13 to 16 for all sweeteners tested. Panelists were provided with a control sample prepared as described above. Panelists were also provided with an otherwise identical experimental sample prepared as described above. Panelists were asked to determine which sample tasted sweeter. […] Panelists wore nose clips and were blinded to the identity of the samples. Sensitivity index, also referred to as a “d' score” was calculated using known statistical methods.
# [4] = rated every 30 seconds for 3 minutes, 15-point line scale
compound,measurement,setting,value
"C=C1C[C@@]23CC[C@H]4[C@@](C)(CCC[C@@]4(C)C(=O)O[C@@H]4O[C@H](CO)[C@@H](O)[C@H](O)[C@H]4O[C@@H]4O[C@@H](C)[C@H](O)[C@@H](O)[C@H]4O)[C@@H]2CC[C@]1(O[C@@H]1O[C@H](CO)[C@@H](O)[C@H](O[C@@H]2O[C@H](CO)[C@@H](O)[C@H](O)[C@H]2O)[C@H]1O[C@@H]1O[C@H](CO)[C@@H](O)[C@H](O)[C@H]1O)C3 [Rebaudioside J, rebaudioside J]",bitterness intensity (FIG. 4),[1],low and only increased slightly with increasing concentration
same,sweetness intensity (FIG. 4),[1],increases with increasing concentration
same,bitterness intensity over time (FIG. 5),[2]; [4],remains low
same,sweetness intensity over time (FIG. 5),[2]; [4],decreases over time
same,bitterness over time compared with rebaudioside A (FIG. 7),[2]; vs rebaudioside A,less bitter than rebaudioside A
same,sweetness compared with 1.5% sucrose (sweetness recognition threshold),human sense of taste,less sweet than 1.5% sucrose
same,panelists' notes on taste characteristics,panelists,"lack of bitterness, sugar-like, syrupy and round characteristics"
same,sweetness score on scale of 1-10 (FIG. 3),"panelists; rebaudioside A 400 ppm assigned 5, sucrose 6.5% assigned 10, noseclips, blinded",6.7
same,bitterness compared with rebaudioside A (FIG. 6),[3]; 15-point line scale,less bitter
same,chemical/artificial taste compared with rebaudioside A (FIG. 6),[3]; 15-point line scale,less chemical/artificial taste than rebaudioside A
same,overall impression compared with rebaudioside A (FIG. 8),[3],scored higher in overall impression than rebaudioside A
CC1=CC(=O)NS(=O)(=O)O1 [Acesulfame potassium],Panelist reporting Rebaudioside J increased sweetness (%),sensory panelists,85%
same,d' Score,sensory panelists,2.30
"OC[C@H]1O[C@H](O[C@]2(CCl)O[C@H](CCl)[C@@H](O)[C@@H]2O)[C@H](O)[C@@H](O)[C@H]1Cl [Sucralose, sucralose]",Panelist reporting Rebaudioside J increased sweetness (%),sensory panelists,89%
same,d' Score,sensory panelists,2.44
"OC[C@H]1O[C@@](CO)(O[C@H]2O[C@H](CO)[C@@H](O)[C@H](O)[C@H]2O)[C@@H](O)[C@@H]1O [Sucrose, sucrose]",Panelist reporting Rebaudioside J increased sweetness (%),sensory panelists,85%
same,d' Score,sensory panelists,2.00
"COC(=O)[C@H](Cc1ccccc1)NC(=O)[C@@H](N)CC(=O)O [Aspartame, aspartame] (H-Asp-Phe-OMe)",Panelist reporting Rebaudioside J increased sweetness (%),sensory panelists,86%
same,d' Score,sensory panelists,2.13
